Assay results reported in patent publication US20210205292A1, “INHIBITORS OF CREB-CBP INTERACTION FOR TREATMENT OF LEUKEMIA” (The Board of Trustees of the Leland Stanford Junior …, priority 2016, published 2021).
“Also recorded” adds a separate entry of the source.

What was measured:
[1] = system: CREB-driven promoter (CRE); assay: CREB-driven (CRE) luciferase reporter in KG-1 cells; assay type: cell-based; details: 6 hours
Method: KG-1 cell lines were created to express luciferase in a CREB-dependent or non-CREB-dependent fashion using lentiviral gene delivery. Cells were sorted for mCherry expression by flow cytometry and selected with puromycin. Luciferase activity was measured on a […] using the Promega Luciferase Activity Kit (Promega) per manufacturer's instructions following six hours of treatment with Compound A or 0.1% DMSO. The split Renilla luciferase complementation assay has been described previously (Li BX, and Xiao X. Discovery of a small-molecule inhibitor of the KIX-KID interaction. Chembiochem: a European journal of chemical biology. 2009; 10(17):2721-4). In this assay, the KID and KIX domains were fused to the N- and C-terminal regions of Renilla luciferase, respectively. Once KIX binds phosphorylated KID, the Renilla luciferase regions were brought together, resulting in luciferase activity.
To test the ability of Compound A to disrupt CREB-CBP binding in cells, a split Renilla luciferase complementation assay was performed. […] This early timepoint was selected to permit accurate reporter gene activity measurement prior to the onset of anticipated global cell dysfunction or death induced by Compound A. Treatment with 3 μM Compound A reduced luciferase activity by 33.2±7.7% at this timepoint. […] Thus, Compound A inhibits CREB function through disruption of CREB:CBP interaction.

KG-1 cells = assay: Viable cell count of engineered KG-1 cell lines (CREB KD, GFP, CREB OE, CBP OE); assay type: cell-based; details: Homo sapiens, KG-1, 48 h, 48 hours
Method: AML cell lines were purchased from ATCC and maintained with IMDM (Gibco) supplemented with 10% FBS (Fisher Scientific) and 1% PSG (Gibco). Cells were plated at a density of 2-4×10^5 cells/ml, and treated with various doses of Compound A in 0.1% DMSO or 0.1% DMSO alone. Cell counts and viability were determined using the Vi-CELL XR Cell Viability Analyzer (Beckman Coulter). HL-60 and KG-1 cells overexpressing CREB or CBP were generated using lentiviral gene delivery with subsequent puromycin selection and FACs sorting for GFP. CREB knockdown was achieved by infecting cells with a lentivirus expressing the shRNA sequence 5′-[…]-3′ (SEQ ID NO:). For chemotherapy combination experiments, combination index values were calculated using median effects analysis on Calcusyn software. Human patient bone marrow samples were cultured in DMEM plus 20% FBS and 1×PSG, supplemented with recombinant GM-CSF (20 ng/ml), G-CSF (20 ng/ml), SCF (50 ng/ml), IL-3 (20 ng/ml), and IL-6 (10 ng/ml). Cells were plated at a concentration of 1×10^5 cells/ml in a 12-well plate. Vehicle (0.1% DMSO) or Compound A (2 μM) was added for up to 72 hours. All samples contained >85% AML blasts and were not sorted prior to performing experiments. Immunostaining and flow cytometry analyses were performed according to standard procedures. All antibodies were purchased from BD Biosciences. Single cell suspensions of bone marrow culture were subsequently analyzed on a D×P10 flow cytometer (Cytek). Bone marrow from AML patients were collected through voluntary patient participation at University of California, Los Angeles (Los Angeles, Calif., USA) and Stanford University (Palo Alto, Calif., USA) in compliance with the Institutional Review Board regulations of each institution.
To test the effects of CREB inhibition on AML cells, four AML cell lines were treated with doses of Compound A ranging from 100 pM to 10 μM for 48 hours. […] KG-1 cells were less sensitive to Compound A and expressed lower levels of CREB compared to HL-60 cells (FIG. 2, panel A). CREB was overexpressed to determine whether sensitivity of KG-1 cells to Compound A could be increased. KG-1 cell lines in which CREB or CBP was overexpressed, or CREB was knocked down by shRNA, were generated (FIG. 2C). A KG-1 cell line expressing only GFP was used as a control. These cell lines were treated with a range of Compound A concentrations for 48 hours (FIG. 2D). Experiments were also performed to examine the efficacy of combining Compound A with cytarabine or daunorubicin, standard drugs used in AML therapy.

[2] = system: primary AML patient bone marrow samples; assay: Single cell mass cytometry (CyTOF) of primary AML patient samples; assay type: cell-based, human
Method: These were stained for viability using cisplatin. Cells were fixed with 1.6% PFA (Electron Microscopy Sciences) for 10 min and washed with cell staining media (CSM). Fc receptor block was performed using Human TruStain FcX (Biolegend) following manufacturer's instructions. Cells were stained for surface proteins at room temperature for 30 min. Following staining, cells were washed twice with CSM and permeabilized with methanol pre-cooled to 4° C. for 10 min. Cells were then washed twice and stained for intracellular proteins for 30 min at room temperature. Surface and intracellular staining cocktails are listed in supplementary methods. Cells were washed and stained with 1 mL of 2000× iridium DNA intercalator (diluted 1:5000 in PBS with 1.6% PFA; DVS Sciences) overnight at 4° C. Data were acquired using internal metal isotope bead standards as previously described (Finck et al., “Normalization of mass cytometry data with bead standards.” Cytometry A. 2013; 83(5):483-94). Cell events were acquired at approximately 500 events per second on a CyTOF I (DVS Sciences/Fluidigm). All antibodies were also purchased from DVS Sciences/Fluidigm. Each patient sample was individually normalized to the internal bead standards prior to analysis. […]

N#Cc1ccc(NC(=O)c2cc3ccccc3cc2O)cc1 [Compound A, N-(4-cyanophenyl)-3-hydroxy-2-naphthamide]
reduction of CREB-driven luciferase activity ([1]; 3 μM): 33.2±7.7%
CREB-driven luciferase activity ([1]; KG-1 cells, 3, 10 and 30 μM): significantly decreased; also recorded: reduced by Compound A in a dose-dependent fashion
IC50 (KG-1 cells; KG-1 CBP OE): 826 nM
IC50 (KG-1 cells; KG-1 CREB KD): 1790 nM
IC50 (KG-1 cells; KG-1 CREB OE): 687 nM
IC50 (KG-1 cells; KG-1 GFP control): 1040 nM
cells in S-phase (CyTOF) ([2]; patient sample 97, CD34+CD38− subpopulation): < 0.1 % of total
Bcl-2 expression (CyTOF) ([2]; patient samples 96 and 186, all cell subpopulations, 2 µM, 48 hours): reduced Bcl-2 expression
